In US20240316130A1 (priority 2023, published 2024):
“Also recorded” adds a separate entry of the source.

Key:
MYXV = assay: microbe, parasite or virus in culture; assay type: cell-based, myxoma virus
B16F10 cells = assay type: cell-based, murine; conditions: 24 hours
A9F1 cells = assay type: cell-based

N=C(N)NCCC[C@H](N)C(=O)O [arginine]
arginine concentration at which maximal viral replication occurs (MYXV): at least 100 μM | EC50 (MYXV; Myxoma virus, 24 h, read-out: EC50 of exogenous arginine for production of new infectious MYXV progeny): ~50 µM

NC(=O)NCCC[C@H](N)C(=O)O [citrulline, L-Citrulline]
rescue of MYXV replication by supplement (B16F10 cells): support myxoma virus replication; also recorded: could also rescue MYXV replication | rescue of cytostasis by supplement (A9F1 cells): could not be rescued
